Results on eleven compounds are retold here after ChEMBL document CHEMBL1132875, “Bicyclic pyridones as potent, efficacious and orally bioavailable thrombin inhibitors” (Bioorg Med Chem Lett, 2000).

A short description of data set [1]: The compound was tested in vitro for its anticoagulant potency (2x APTT) of human plasma. In kind it is functional.
Another data set has as its target Serine protease 1 (Homo sapiens, UniProt P07477). As to the kind of experiment: The compound was tested for its ability to inhibit trypsin.
The next data set has as its target Prothrombin (Homo sapiens, UniProt P00734). As to the kind of experiment: The compound was tested for its ability to inhibit thrombin.
Data set [2] has as its system Rattus norvegicus. As to the kind of experiment: Final plasma concentration when 3 ug/kg/min compound administered intravenously in rat. Particulars: in vivo, iv, 0.003 mg/kg. In kind it is ADME, organism-based.
Data set [3] concerns Rattus norvegicus. As to the kind of experiment: Compound was tested in vivo for its antithrombotic efficacy in six rats upon intravenous administration of 3 ug/kg/min dose and activity expressed as number of occlusions. In kind it is functional.
A short description of data set [4]: Oral absorption kinetics (AUC) was determined after administration of compound orally at 1 mg/kg in dogs. In kind it is ADME, organism-based, Canis lupus familiaris. Set-up: dose 1 mg/kg, route oral. Particulars: dog, in vivo.
A short description of data set [5]: Cmax in dog plasma after 1mg/kg oral dose. In kind it is ADME, organism-based, Canis lupus familiaris. On the set-up: dose 1 mg/kg, route oral.
The nature of data set [6]: Maximum time taken for oral absorption was determined after oral administration at 1 mg/kg in dogs. Particulars: dog, in vivo. Set-up: dose 1 mg/kg, route oral. In kind it is ADME, organism-based, Canis lupus familiaris.
A short description of data set [7]: (§1) Half life was determined after oral administration at 1 mg/kg in dogs. In kind it is ADME, organism-based, Canis lupus familiaris. On the set-up: dose 1 mg/kg, route oral. Particulars: dog, in vivo.
Data set [8] concerns Rattus norvegicus. As to the kind of experiment: Final plasma concentration when 10 ug/kg/min compound administered intravenously in rat. In kind it is ADME, organism-based. Particulars: in vivo, iv, 0.01 mg/kg.
The subject of data set [9] is Rattus norvegicus. As to the kind of experiment: Compound was tested in vivo for its antithrombotic efficacy in six rats upon intravenous administration of 10 ug/kg/min dose and activity expressed as number of occlusions. In kind it is functional.
Data set [10] deals with Rattus norvegicus. As to the kind of experiment: Compound was tested in vivo for its antithrombotic efficacy in six rats upon intravenous administration of 10 ug/kg/min dose and activity expressed as number of occlusions.
The next data set deals with Canis familiaris. Described as §1. In kind it is ADME, organism-based, Canis lupus familiaris. On the set-up: dose 1 mg/kg, route oral. Particulars: dog, in vivo.

Each structure is given as a SMILES string.

Sequence of Serine protease 1 (P07477 whole entry): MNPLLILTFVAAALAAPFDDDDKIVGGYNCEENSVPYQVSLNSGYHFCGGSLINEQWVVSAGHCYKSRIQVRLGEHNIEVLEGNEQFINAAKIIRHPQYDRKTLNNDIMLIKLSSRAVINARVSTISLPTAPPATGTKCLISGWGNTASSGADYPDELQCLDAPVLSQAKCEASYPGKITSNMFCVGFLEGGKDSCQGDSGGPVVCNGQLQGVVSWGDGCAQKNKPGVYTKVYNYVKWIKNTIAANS

For the compound `Cc1nc(N)ccc1CNC(=O)Cn1c(C)cc2c(c1=O)NC(=O)C(CC(C)C)(CC(C)C)C2`, the “Concentration doubling APTT” value in [1] is 390 nM.
Take `Cc1nc(N)ccc1CNC(=O)Cn1c(C)cc2c(c1=O)NC(=O)[C@H](Cc1ccccc1)C2`: the “Concentration doubling APTT” value in data set [1] is on record as 200 nM. This compound returned a Ki on Serine protease 1 of 12700 nM.
Take `CC[C@@H]1Cc2cc(C)n(CC(=O)NCc3ccc(N)nc3C)c(=O)c2NC1=O`: in data set [1], the “Concentration doubling APTT” value worked out at 310 nM. The Ki at Prothrombin came out at 1.6 nM; at Serine protease 1, 4200 nM.
In turn, `Cc1nc(N)ccc1CNC(=O)Cn1c(C)cc2c(c1=O)NC(=O)[C@H](CC1CC1)C2` yielded a concentration in the data set on Rattus norvegicus [2] of 185 nM. For the same compound, in data set [1], the “Concentration doubling APTT” value stood at 150 nM. This compound yielded an Activity in the data set on Rattus norvegicus [3] of 1. Further, the Ki at Prothrombin turned out to be 0.21 nM; at Serine protease 1 it was 770 nM.
For `CCC[C@@H]1Cc2cc(C)n(CC(=O)NCc3ccc(N)nc3C)c(=O)c2NC1=O`, the “Concentration doubling APTT” value in data set [1] is 180 nM. In addition, the Ki on Prothrombin stood at 0.33 nM; on Serine protease 1 it was 510 nM.
With `Cc1nc(N)ccc1CNC(=O)Cn1c(C)cc2c(c1=O)NC(=O)[C@](C)(CC(C)C)C2`, the AUC in data set [4] was 2.97 µM·h. In data set [5], this compound registered a Cmax of 1370 nM. For the same compound, in data set [6], the time to peak (Tmax) is 0.5 h. Moreover, the half-life in [7] came to 1.5 h. Moreover, in [1], the “Concentration doubling APTT” value came to 160 nM. The compound also registered a Ki on Serine protease 1 of 860 nM.
For `Cc1nc(N)ccc1CNC(=O)Cn1c(C)cc2c(c1=O)NC(=O)CC2`, at Serine protease 1, the Ki amounted to 101000 nM.
Consider `Cc1nc(N)ccc1CNC(=O)Cn1c(C)cc2c(c1=O)NC(=O)[C@H](CC1CCC1)C2`, for which the concentration in the data set on Rattus norvegicus [8] worked out at 596 nM. Also, the “Concentration doubling APTT” value in data set [1] worked out at 190 nM. The Activity in the data set on Rattus norvegicus [9] turned out to be 0. Also, the affinity on Serine protease 1 corresponds to a Ki of 420 nM.
Turning to `CCC[C@H]1Cc2cc(C)n(CC(=O)NCc3ccc(N)nc3C)c(=O)c2NC1=O`, the inhibition constant Ki at Prothrombin was determined as 36 nM; on Serine protease 1 it was 22000 nM.
In data set [4], `Cc1nc(N)ccc1CNC(=O)Cn1c(C)cc2c(c1=O)NC(=O)[C@H](CC(C)C)C2` returned an AUC of 0.75 µM·h. Further, the highest level in data set [5] (Cmax) was 180 nM. Moreover, in [6], the Tmax is 1.17 h. The concentration in the data set with Rattus norvegicus [8] amounted to 255 nM. The half-life in [7] was found to be 2.35 h. Also, the “Concentration doubling APTT” value in data set [1] came to 220 nM. Further, the values for the Ki on Prothrombin and at Serine protease 1 were 0.4 nM and 580 nM, respectively. Also, in the data set with Rattus norvegicus [10], the Activity is listed as 0.
The compound `Cc1nc(N)ccc1CNC(=O)Cn1c(C)ccc(NS(=O)(=O)Cc2ccccc2)c1=O` [L-374087] registered an AUC in data set [4] of 4.42 µM·h. In addition, in the data set on Canis familiaris, the T1/2 stood at 2.57 h.

Broadly, the Ki is the equilibrium dissociation constant of an inhibitor or competing ligand from its target. One may read the AUC as the area under the concentration-time curve, a measure of exposure. One may read the Cmax as the highest concentration seen after dosing. By Tmax is commonly meant the time at which the peak concentration occurs. The half-life is how long it takes for the measured level to halve. A high value points to slow loss.
